Experimental data reported in ChEMBL document CHEMBL1156230, “Identification of phenylsulfone-substituted quinoxaline (WYE-672) as a tissue selective liver X-receptor (LXR) agonist” (J Med Chem, 2010).
Active and inactive are the calls of the source. The calls are words filed in the database; no cut-off is given here.

Key:
[1] = test system: Mus musculus; experiment: Antiatherosclerotic activity against high fat/high cholesterol fed LDLR-deficient mouse assessed as srebf1 gene regulation at 10 mg/kg administered with diet for 7 days by Experion chip analysis; type: functional, organism-based; design: dose 10 mg/kg
[2] = test system: Mus musculus; experiment: Antiatherosclerotic activity against high fat/high cholesterol fed LDLR-deficient mouse assessed as abcg8 gene regulation at 3 mg/kg administered with diet for 8 weeks by Experion chip analysis
[3] = test system: Mus musculus; experiment: Antiatherosclerotic activity against high fat/high cholesterol fed LDLR-deficient mouse duodenum assessed as induction of ABCA1 expression at 3 mg/kg administered with diet for 8 weeks; type: functional, organism-based; design: dose 3 mg/kg
[4] = test system: Mus musculus; experiment: Antiatherosclerotic activity against high fat/high cholesterol fed LDLR-deficient mouse macrophages assessed as induction of ABCA1 expression at 10 mg/kg administered with diet for 8 weeks; type: functional, organism-based; design: dose 10 mg/kg
[5] = test system: Mus musculus; experiment: Antiatherosclerotic activity against high fat/high cholesterol fed LDLR-deficient mouse assessed as Irp1 gene regulation at 3 mg/kg administered with diet for 7 days by Experion chip analysis; type: functional, organism-based; design: dose 3 mg/kg
[6] = test system: Mus musculus; experiment: Antiatherosclerotic activity against high fat/high cholesterol fed LDLR-deficient mouse assessed as srebf1 gene regulation at 0.6 mg/kg administered with diet for 7 days by Experion chip analysis; type: functional, organism-based; design: dose 0.6 mg/kg
[7] = test system: Mus musculus; experiment: Antiatherosclerotic activity against high fat/high cholesterol fed LDLR-deficient mouse duodenum assessed as induction of ABCA1 expression at 10 mg/kg administered with diet for 8 weeks; type: functional, organism-based; design: dose 10 mg/kg
[8] = test system: Mus musculus; experiment: Antiatherosclerotic activity against high fat/high cholesterol fed LDLR-deficient mouse assessed as apo5 gene regulation at 10 mg/kg administered with diet for 7 days by Experion chip analysis; type: functional, organism-based; design: dose 10 mg/kg
[9] = test system: Mus musculus; experiment: Antiatherosclerotic activity against high fat/high cholesterol fed LDLR-deficient mouse assessed as scab1 gene regulation at 0.6 mg/kg administered with diet for 7 days by Experion chip analysis; type: functional, organism-based; design: dose 0.6 mg/kg
[10] = test system: Mus musculus; experiment: Antiatherosclerotic activity against high fat/high cholesterol fed LDLR-deficient mouse assessed as apo5 gene regulation at 3 mg/kg administered with diet for 7 days by Experion chip analysis; type: functional, organism-based; design: dose 3 mg/kg
[11] = test system: Mus musculus; experiment: Antiatherosclerotic activity against high fat/high cholesterol fed LDLR-deficient mouse duodenum assessed as induction of ABCG8 expression at 10 mg/kg administered with diet for 8 weeks; type: functional, organism-based; design: dose 10 mg/kg
[12] = test system: Mus musculus; experiment: Antiatherosclerotic activity against high fat/high cholesterol fed LDLR-deficient mouse duodenum assessed as induction of ABCA1 expression at 0.6 mg/kg administered with diet for 8 weeks; type: functional, organism-based; design: dose 0.6 mg/kg
[13] = test system: Mus musculus; experiment: Antiatherosclerotic activity against high fat/high cholesterol fed LDLR-deficient mouse assessed as apoe gene regulation at 0.6 mg/kg administered with diet for 7 days by Experion chip analysis; type: functional, organism-based; design: dose 0.6 mg/kg
[14] = test system: Mus musculus; experiment: Antiatherosclerotic activity against high fat/high cholesterol fed LDLR-deficient mouse assessed as Lipc gene regulation at 10 mg/kg administered with diet for 7 days by Experion chip analysis; type: functional, organism-based; design: dose 10 mg/kg
[15] = test system: Mus musculus; experiment: Antiatherosclerotic activity against high fat/high cholesterol fed LDLR-deficient mouse assessed as Irp1 gene regulation at 0.6 mg/kg administered with diet for 7 days by Experion chip analysis; type: functional, organism-based; design: dose 0.6 mg/kg
[16] = test system: Mus musculus; experiment: Antiatherosclerotic activity against high fat/high cholesterol fed LDLR-deficient mouse duodenum assessed as induction of SREBP-1c expression at 3 mg/kg administered with diet for 8 weeks; type: functional, organism-based; design: dose 3 mg/kg
[17] = test system: Mus musculus; experiment: Antiatherosclerotic activity against high fat/high cholesterol fed LDLR-deficient mouse assessed as abcg8 gene regulation at 0.6 mg/kg administered with diet for 7 days by Experion chip analysis; type: functional, organism-based; design: dose 0.6 mg/kg
[18] = test system: Mus musculus; experiment: Antiatherosclerotic activity against high fat/high cholesterol fed LDLR-deficient mouse assessed as apoe gene regulation at 3 mg/kg administered with diet for 7 days by Experion chip analysis; type: functional, organism-based; design: dose 3 mg/kg
[19] = species: Mus musculus; experiment: Antiatherosclerotic activity against high fat/high cholesterol fed LDLR-deficient mouse assessed as reduction in total plasma cholesterol; type: functional, organism-based
[20] = test system: Mus musculus; experiment: Antiatherosclerotic activity against high fat/high cholesterol fed LDLR-deficient mouse assessed as Fasn gene regulation at 10 mg/kg administered with diet for 7 days by Experion chip analysis; type: functional, organism-based; design: dose 10 mg/kg
[21] = test system: Mus musculus; experiment: Antiatherosclerotic activity against high fat/high cholesterol fed LDLR-deficient mouse assessed as ldlr gene regulation at 3 mg/kg administered with diet for 7 days by Experion chip analysis; type: functional, organism-based; design: dose 3 mg/kg
[22] = test system: Mus musculus; experiment: Antiatherosclerotic activity against high fat/high cholesterol fed LDLR-deficient mouse duodenum assessed as induction of SREBP-1c expression at 0.6 mg/kg administered with diet for 8 weeks; type: functional, organism-based; design: dose 0.6 mg/kg
[23] = test system: Mus musculus; experiment: Antiatherosclerotic activity against high fat/high cholesterol fed LDLR-deficient mouse assessed as adfp gene regulation at 3 mg/kg administered with diet for 7 days by Experion chip analysis; type: functional, organism-based; design: dose 3 mg/kg
[24] = test system: Mus musculus; experiment: Antiatherosclerotic activity against high fat/high cholesterol fed LDLR-deficient mouse assessed as abcg5 gene regulation at 10 mg/kg administered with diet for 7 days by Experion chip analysis; type: functional, organism-based; design: dose 10 mg/kg
[25] = test system: Mus musculus; experiment: Antiatherosclerotic activity against high fat/high cholesterol fed LDLR-deficient mouse duodenum assessed as induction of ABCG5 expression at 10 mg/kg administered with diet for 8 weeks; type: functional, organism-based; design: dose 10 mg/kg
[26] = test system: Mus musculus; experiment: Antiatherosclerotic activity against high fat/high cholesterol fed LDLR-deficient mouse assessed as srebf1 gene regulation at 3 mg/kg administered with diet for 7 days by Experion chip analysis; type: functional, organism-based; design: dose 3 mg/kg
[27] = test system: Mus musculus; experiment: Antiatherosclerotic activity against high fat/high cholesterol fed LDLR-deficient mouse assessed as abcg1 gene regulation at 3 mg/kg administered with diet for 8 weeks by Experion chip analysis
[28] = test system: Mus musculus; experiment: Antiatherosclerotic activity against high fat/high cholesterol fed LDLR-deficient mouse assessed as cyp7a1 gene regulation at 0.6 mg/kg administered with diet for 7 days by Experion chip analysis; type: functional, organism-based; design: dose 0.6 mg/kg
[29] = test system: Mus musculus; experiment: Antiatherosclerotic activity against high fat/high cholesterol fed LDLR-deficient mouse assessed as Fasn gene regulation at 0.6 mg/kg administered with diet for 7 days by Experion chip analysis; type: functional, organism-based; design: dose 0.6 mg/kg
[30] = test system: Mus musculus; experiment: Antiatherosclerotic activity against high fat/high cholesterol fed LDLR-deficient mouse assessed as pltp gene regulation at 10 mg/kg administered with diet for 7 days by Experion chip analysis; type: functional, organism-based; design: dose 10 mg/kg
[31] = test system: Mus musculus; experiment: Antiatherosclerotic activity against high fat/high cholesterol fed LDLR-deficient mouse assessed as lipg gene regulation at 10 mg/kg administered with diet for 7 days by Experion chip analysis; type: functional, organism-based; design: dose 10 mg/kg
[32] = test system: Mus musculus; experiment: Antiatherosclerotic activity against high fat/high cholesterol fed LDLR-deficient mouse assessed as pltp gene regulation at 0.6 mg/kg administered with diet for 7 days by Experion chip analysis; type: functional, organism-based; design: dose 0.6 mg/kg
[33] = test system: Mus musculus; experiment: Antiatherosclerotic activity against high fat/high cholesterol fed LDLR-deficient mouse assessed as cyp7a1 gene regulation at 3 mg/kg administered with diet for 7 days by Experion chip analysis; type: functional, organism-based; design: dose 3 mg/kg
[34] = test system: Mus musculus; experiment: Antiatherosclerotic activity against high fat/high cholesterol fed LDLR-deficient mouse assessed as abca1 gene regulation at 3 mg/kg administered with diet for 7 days by Experion chip analysis; type: functional, organism-based; design: dose 3 mg/kg
[35] = test system: Mus musculus; experiment: Antiatherosclerotic activity against high fat/high cholesterol fed LDLR-deficient mouse duodenum assessed as induction of ABCG8 expression at 0.6 mg/kg administered with diet for 8 weeks; type: functional, organism-based; design: dose 0.6 mg/kg
[36] = test system: Mus musculus; experiment: Antiatherosclerotic activity against high fat/high cholesterol fed LDLR-deficient mouse duodenum assessed as induction of SREBP-1c expression at 10 mg/kg administered with diet for 8 weeks; type: functional, organism-based; design: dose 10 mg/kg
[37] = test system: Mus musculus; experiment: Antiatherosclerotic activity against high fat/high cholesterol fed LDLR-deficient mouse assessed as abcg5 gene regulation at 0.6 mg/kg administered with diet for 7 days by Experion chip analysis; type: functional, organism-based; design: dose 0.6 mg/kg
[38] = test system: Mus musculus; experiment: Antiatherosclerotic activity against high fat/high cholesterol fed LDLR-deficient mouse assessed as abca1 gene regulation at 0.6 mg/kg administered with diet for 7 days by Experion chip analysis; type: functional, organism-based; design: dose 0.6 mg/kg

Structure (SMILES)	Activity [1]	Activity [2]	Activity [3]	Activity [4]	Activity [5]	Activity [6]	Activity [7]	Activity [8]	Activity [9]	Activity [10]	Activity [11]	Activity [12]	Activity [13]	Activity [14]	Activity [15]	Activity [16]	Activity [17]	Activity [18]	Activity [19]	Activity [20]	further results
Cc1nc2c(C(F)(F)F)cccc2nc1-c1ccc(-c2cccc(S(C)(=O)=O)c2)cc1	Active	Active	Active	Active	Active	Active	Active	Active	Active	Active	Active	Active	Active	Active	Active	Active	Active	Active	inactive	Active	Activity [21]: Active; Activity [22]: inactive; Activity [23]: Active; Activity [24]: Active; Activity [25]: Active; Activity [26]: inactive; Activity [27]: Active; Activity [28]: Active; Activity [29]: Active; Activity [30]: Active; Activity [31]: Active; Activity [32]: Active; Activity [33]: Active; Activity [34]: Active; Activity [35]: Active; Activity [36]: Active; Activity [37]: Active; Activity [38]: Active
O=C(O)Cc1cccc(OCCCN(Cc2cccc(C(F)(F)F)c2Cl)CC(c2ccccc2)c2ccccc2)c1	Active	Active	Active	Active	Active	Active	Active	Active	Active	Active	Active	Active	Active	Active	Active	Active	Active	Active	inactive	Active	Activity [21]: Active; Activity [22]: Active; Activity [23]: Active; Activity [24]: Active; Activity [25]: Active; Activity [26]: inactive; Activity [27]: Active; Activity [28]: Active; Activity [29]: Active; Activity [30]: Active; Activity [31]: Active; Activity [32]: Active; Activity [33]: Active; Activity [34]: Active; Activity [35]: Active; Activity [36]: Active; Activity [37]: Active; Activity [38]: Active
